Experimental findings from patent publication EP0173664A2, “Biologically active benzimidazole compounds and process for their preparation” (priority 1984, dated 1986) are described below.

This experiment concerns isolated rabbit gastric glands. Put plainly: Inhibiting effect in vitro on acid secretion in isolated rabbit gastric glands (14C-aminopyrine accumulation, histamine-stimulated). In kind it is cell-based. As to conditions: Oryctolagus cuniculus, 1 h; negative logarithm of concentration (in M) giving 50% inhibition of aminopyrine accumulation; glands incubated 60 min with 5x10^-5M histamine; read-out: Biological effect in glands pIC50 (converted). As for the experimental part:
Isolated rabbit gastric glands were prepared as described by Berglindh et al., Acta physiol. scand. 1976. 96. 150-159. This method involves vascular perfusion of the rabbit stomach via the gastric arteries, scraping and scissor mincing of the separated gastric mucosa and collagenase (0.1%, Type I, Sigma Chemicals, St. Louis, MO. USA) digestion at 37°C for 60-90 min. The glands are then harvested and filtered through nylon cloth to remove coarse fragments. The glands are thereafter incubated at 37°C in a medium containing NaCl 132.4 mM, KC1 5.4 mM, […], NaH2P04 1.0 mM, MgS04 1.2 mM, CaCl2 1.0 mM, glucose 10 mM, and 1 mg/ml rabbit albumine, pH 7.4.
The acid secretion in the isolated gland preparation was recorded by measuring the uptake of ^14C-labelled aminopyrine into the glands as described by Berglindh et al., Acta physiol. scand. 1976. 97. 401-414. Accumulation of aminopyrine in the glands indicates gastric acid secretion within the glands. The standard medium contained 10^-6M ^14C-aminopyrine (Amersham, Great Britain). After the incubation period, the glands were centrifuged, the supernatant was removed and the glands dried, weighed and dissolved in Soluene -350 (Packard, IU. USA). Samples of the supernatant and glands were separately counted in a scintillation counter. The accumulation of ^14 C-labelled aminopyrine in the glands was calculated as detailed by Berglindh et al., Acta physiol. scand. 1976. 97. 403.
Glands were incubated for 60 min. in the presence of 5x10^-5M histamine and the test compound to be studied. The free base of the test compound was dissolved in methanol. The final concentration of methanol was 1% in the incubation medium, having no influence on the aminopyrine accumulation ratio. For each test compound a complete dose-response curve was generated by testing doses in duplicate in the concentration range 10^-7M to 10-^4M.

With `CCc1cnc(C[S+]([O-])c2nc3cc(C)c(C)cc3[nH]2)cc1Oc1ccccc1` (centres unmarked) [Example 1, 5,6-dimethyl-2-[[(4-phenoxy-5--ethyl-2-pyridinyl)methyl]sulfinyl]-1H-benzimidazole], the IC50 is 1000 nM.

For `COc1ccc2[nH]c([S+]([O-])Cc3cc(Oc4ccc(C)cc4)ccn3)nc2c1` (centres unmarked) [Example 3, 5-methoxy-2-[[[4-(4-methylphenoxy)--2-pyridinyl]methyl]sulfinyl]-1H-benzimidazole], the IC50 is 794 nM.

Regarding `CCc1cnc(C[S+]([O-])c2nc3cc(OC)ccc3[nH]2)cc1Oc1ccccc1` (centres unmarked) [Example 6], the IC50 was 316 nM.

For the compound `COc1ccc2[nH]c([S+]([O-])Cc3cc(-c4ccccc4)ccn3)nc2c1` (centres unmarked) [Example 8], the IC50 is 2510 nM.

With `COc1ccc2[nH]c([S+]([O-])Cc3cc(Oc4ccccc4)ccn3)nc2c1` (centres unmarked) [Example 10], the IC50 is 1260 nM.

On to `Cc1cc2nc([S+]([O-])Cc3cc(Oc4ccccc4)ccn3)[nH]c2cc1C` (centres unmarked) [Example 12], for which the IC50 is 316 nM.

On to `COc1ccc2[nH]c([S+]([O-])Cc3nccc(Oc4ccc(C)cc4)c3C)nc2c1` (centres unmarked) [Example 16], for which the IC50 was 631 nM.

For the compound `COc1ccc2[nH]c([S+]([O-])Cc3cc(Oc4ccc(C)cc4)c(C)cn3)nc2c1` (centres unmarked) [Example 18], the IC50 was 631 nM.

Regarding `COc1ccc2[nH]c([S+]([O-])Cc3cc(OCc4ccccc4)c(C)cn3)nc2c1` (centres unmarked) [Example 22], the IC50 was 79.4 nM.

Turning to `Cc1cc2nc([S+]([O-])Cc3cc(-c4ccccc4)ccn3)[nH]c2cc1C` (centres unmarked) [Example 24], the IC50 is 7940 nM.

Regarding `CCc1cnc(C[S+]([O-])c2nc3cc(OC)ccc3[nH]2)cc1OCc1ccccc1` (centres unmarked) [Example 26], the IC50 was 794 nM.
